Species: Rattus norvegicus
Assay: Open TG-GATES - Regimen: Daily Repeat
Assay type: toxicity, organism-based, Sprague-Dawley
Set-up: regimen Daily Repeat, gender Male, age 6 weeks
Conditions: in vivo, po, 0 mg/kg, route gavage, dose level Control; for APTT / Bas / Eos / Fbg / Hb / Ht / Lym / MCH / MCHC / MCV / Mono / Neu / PT / Plat / RBC / Ret / WBC: tissue Blood; for KIDNEY_L / KIDNEY_R / KIDNEY_TOTAL: tissue Kidney; for LIVER: tissue Liver; for A/G / ALP / ALT / AST / BUN / CRE / Ca / Cl / DBIL / GLC / IP / K / LDH / Na / PL / RALB / TBIL / TC / TG / TP / gamma-GTP: tissue Plasma

C[C@]12CCC(=O)C=C1CC[C@@H]1[C@@H]2CC[C@@]2(C)[C@H]1CC[C@]2(C)O [METHYLTESTOSTERONE]
TERMINAL_BW (72 h, time 3 day): 237.3 g | APTT (72 h, time 3 day): 16.2 s | Bas (72 h, time 3 day): 0% | Eos (72 h, time 3 day): 1.2% | Fbg (72 h, time 3 day): 280 mg/dL | Hb (72 h, time 3 day): 13.4 g/dL | Ht (72 h, time 3 day): 38.9% | Lym (72 h, time 3 day): 78.4% | MCH (72 h, time 3 day): 21.6 pg | MCHC (72 h, time 3 day): 34.4% | MCV (72 h, time 3 day): 62.7 fL | Mono (72 h, time 3 day): 2.4% | Neu (72 h, time 3 day): 17.4% | PT (72 h, time 3 day): 12.9 s | Plat (72 h, time 3 day): 119.6 x10_4/uL | RBC (72 h, time 3 day): 619.6 x10_4/ul | Ret (72 h, time 3 day): 6.7% | WBC (72 h, time 3 day): 73.9 x10_2/uL | KIDNEY_L (72 h, time 3 day): 1 g | KIDNEY_R (72 h, time 3 day): 1 g | KIDNEY_TOTAL (72 h, time 3 day): 2 g | LIVER (72 h, time 3 day): 10.9 g | A/G (72 h, time 3 day): 0.9 | ALP (72 h, time 3 day): 1982.8 IU/L | ALT (72 h, time 3 day): 45.6 IU/L | AST (72 h, time 3 day): 73.2 IU/L | BUN (72 h, time 3 day): 15.2 mg/dL | CRE (72 h, time 3 day): 0.2 mg/dL | Ca (72 h, time 3 day): 10.9 mg/dL | Cl (72 h, time 3 day): 108.2 meq/L | DBIL (72 h, time 3 day): 0.014 mg/dL | GLC (72 h, time 3 day): 186.4 mg/dL | IP (72 h, time 3 day): 7.5 mg/dL | K (72 h, time 3 day): 4.2 meq/L | LDH (72 h, time 3 day): 54.4 IU/L | Na (72 h, time 3 day): 142.6 meq/L | PL (72 h, time 3 day): 142.8 mg/dL | RALB (72 h, time 3 day): 2.6 g/dL | TBIL (72 h, time 3 day): 0.028 mg/dL | TC (72 h, time 3 day): 77.8 mg/dL | TG (72 h, time 3 day): 87.2 mg/dL | TP (72 h, time 3 day): 5.6 g/dL | gamma-GTP (72 h, time 3 day): 1 IU/L | TERMINAL_BW ([…], time 7 day): 278.3 g | TERMINAL_BW ([…], time 14 day): 322 g | TERMINAL_BW ([…], time 28 day): 397.8 g | APTT ([…], time 7 day): 16.6 s | Bas ([…], time 7 day): 0% | Eos ([…], time 7 day): 0.8% | Fbg ([…], time 7 day): 272 mg/dL | Hb ([…], time 7 day): 13.4 g/dL | Ht ([…], time 7 day): 39% | Lym ([…], time 7 day): 81.8% | MCH ([…], time 7 day): 21.4 pg | MCHC ([…], time 7 day): 34.3% | MCV ([…], time 7 day): 62.6 fL | Mono ([…], time 7 day): 2.2% | Neu ([…], time 7 day): 15% | PT ([…], time 7 day): 13.1 s | Plat ([…], time 7 day): 136.7 x10_4/uL | RBC ([…], time 7 day): 623.8 x10_4/ul | Ret ([…], time 7 day): 5.6% | WBC ([…], time 7 day): 87.3 x10_2/uL | APTT ([…], time 14 day): 15.9 s | Bas ([…], time 14 day): 0.2% | Eos ([…], time 14 day): 1% | Fbg ([…], time 14 day): 288.4 mg/dL | Hb ([…], time 14 day): 14.7 g/dL | Ht ([…], time 14 day): 42.6% | Lym ([…], time 14 day): 80.6% | MCH ([…], time 14 day): 20.7 pg | MCHC ([…], time 14 day): 34.6% | MCV ([…], time 14 day): 59.8 fL | Mono ([…], time 14 day): 2.6% | Neu ([…], time 14 day): 15.4% | PT ([…], time 14 day): 12.8 s | Plat ([…], time 14 day): 112.1 x10_4/uL | RBC ([…], time 14 day): 713 x10_4/ul | Ret ([…], time 14 day): 3.6% | WBC ([…], time 14 day): 88 x10_2/uL | APTT ([…], time 28 day): 17.5 s | Bas ([…], time 28 day): 0% | Eos ([…], time 28 day): 1.2% | Fbg ([…], time 28 day): 269.8 mg/dL | Hb ([…], time 28 day): 15.7 g/dL | Ht ([…], time 28 day): 44.4% | Lym ([…], time 28 day): 78.2% | MCH ([…], time 28 day): 19.7 pg | MCHC ([…], time 28 day): 35.4% | MCV ([…], time 28 day): 55.9 fL | Mono ([…], time 28 day): 2% | Neu ([…], time 28 day): 17.6% | PT ([…], time 28 day): 13.5 s | Plat ([…], time 28 day): 106.1 x10_4/uL | RBC ([…], time 28 day): 794.6 x10_4/ul | Ret ([…], time 28 day): 2.1% | WBC ([…], time 28 day): 94.3 x10_2/uL | KIDNEY_L ([…], time 7 day): 1.2 g | KIDNEY_R ([…], time 7 day): 1.1 g | KIDNEY_TOTAL ([…], time 7 day): 2.3 g | KIDNEY_L ([…], time 14 day): 1.2 g | KIDNEY_R ([…], time 14 day): 1.2 g | KIDNEY_TOTAL ([…], time 14 day): 2.5 g | KIDNEY_L ([…], time 28 day): 1.4 g | KIDNEY_R ([…], time 28 day): 1.4 g | KIDNEY_TOTAL ([…], time 28 day): 2.8 g | LIVER ([…], time 7 day): 12.2 g | LIVER ([…], time 14 day): 13.6 g | LIVER ([…], time 28 day): 14.9 g | A/G ([…], time 7 day): 0.9 | ALP ([…], time 7 day): 1755.8 IU/L | ALT ([…], time 7 day): 41.2 IU/L | AST ([…], time 7 day): 71.6 IU/L | BUN ([…], time 7 day): 16.4 mg/dL | CRE ([…], time 7 day): 0.2 mg/dL | Ca ([…], time 7 day): 11 mg/dL | Cl ([…], time 7 day): 104.8 meq/L | DBIL ([…], time 7 day): 0.018 mg/dL | GLC ([…], time 7 day): 192.4 mg/dL | IP ([…], time 7 day): 7.5 mg/dL | K ([…], time 7 day): 4 meq/L | LDH ([…], time 7 day): 68.4 IU/L | Na ([…], time 7 day): 142 meq/L | PL ([…], time 7 day): 136.4 mg/dL | RALB ([…], time 7 day): 2.7 g/dL | TBIL ([…], time 7 day): 0.028 mg/dL | TC ([…], time 7 day): 73 mg/dL | TG ([…], time 7 day): 100.6 mg/dL | TP ([…], time 7 day): 5.8 g/dL | gamma-GTP ([…], time 7 day): 1.2 IU/L | A/G ([…], time 14 day): 0.8 | ALP ([…], time 14 day): 1238.8 IU/L | ALT ([…], time 14 day): 51.8 IU/L | AST ([…], time 14 day): 71.4 IU/L | BUN ([…], time 14 day): 16.4 mg/dL | CRE ([…], time 14 day): 0.2 mg/dL | Ca ([…], time 14 day): 10.6 mg/dL | Cl ([…], time 14 day): 105.8 meq/L | DBIL ([…], time 14 day): 0.018 mg/dL | GLC ([…], time 14 day): 187 mg/dL | IP ([…], time 14 day): 7 mg/dL | K ([…], time 14 day): 4.2 meq/L | LDH ([…], time 14 day): 96.2 IU/L | Na ([…], time 14 day): 141.6 meq/L | PL ([…], time 14 day): 144 mg/dL | RALB ([…], time 14 day): 2.7 g/dL | TBIL ([…], time 14 day): 0.032 mg/dL | TC ([…], time 14 day): 75.6 mg/dL | TG ([…], time 14 day): 127 mg/dL | TP ([…], time 14 day): 5.9 g/dL | gamma-GTP ([…], time 14 day): 1.2 IU/L | A/G ([…], time 28 day): 0.8 | ALP ([…], time 28 day): 1136 IU/L | ALT ([…], time 28 day): 37.8 IU/L | AST ([…], time 28 day): 62.2 IU/L | BUN ([…], time 28 day): 16.4 mg/dL | CRE ([…], time 28 day): 0.2 mg/dL | Ca ([…], time 28 day): 11.3 mg/dL | Cl ([…], time 28 day): 105.4 meq/L | DBIL ([…], time 28 day): 0.016 mg/dL | GLC ([…], time 28 day): 182.6 mg/dL | IP ([…], time 28 day): 6.2 mg/dL | K ([…], time 28 day): 3.9 meq/L | LDH ([…], time 28 day): 59.8 IU/L | Na ([…], time 28 day): 143 meq/L | PL ([…], time 28 day): 127.8 mg/dL | RALB ([…], time 28 day): 2.8 g/dL | TBIL ([…], time 28 day): 0.03 mg/dL | TC ([…], time 28 day): 63.4 mg/dL | TG ([…], time 28 day): 120.6 mg/dL | TP ([…], time 28 day): 6.2 g/dL | gamma-GTP ([…], time 28 day): 0.8 IU/L

From ChEMBL document CHEMBL3885861, “Open TG-GATES”
